For test [1], the system named is PPARG (murine PPARg2 or full-length human PPARG, 3xPPRE-luciferase reporter). As to the kind of experiment: Cell-based PPRE-luciferase transactivation assay in COS-1 cells. The note with it: for EC50: PPRE-luciferase, COS-1 cells, NA = not active, read-out: EC50 (nM) PPRE; for PPRE transactivation (% in parentheses): rosiglitazone = 100%. The protocol:
Cell-Based Transactivation Assay:
PPRE is a DNA that contains a binding site for PPARG; thus PPRE is a PPAR response element, used herein as a promoter reporter. The binding site is a DR1 response element with the sequence AGGTCA repeated 3 times in tandem and then fused to a construct for luciferase.
Thus, PPRE is the basis of the cell based transactivation assay described below. The plasmid DNA is co-transfected along with a plasmid for PPARG into COS-1 cells. After an overnight incubation, cells are treated with DMSO or compounds.
Confluent COS-1 cells were transfected with 4.5 μg murine PPARg2-pSV Sport or full-length human PPAR9-pSport6, 4.5 μg 3×PPRE-luciferase reporter and 27 μL X-treme Gene 9 transfection reagent in serum-free opti-mem media (Gibco), followed by overnight incubation at 37° C., 5% CO2. Transfected cells were plated in white Perkin Elmer 384-well plates and incubated 4 hours. […] After 18 hour incubation, treated cells were developed with Brite Lite Plus (Perkin Elmer) and read in 384-well Luminescence Perkin Elmer EnVision Multilabel plate reader. Graphs were plotted in triplicate in GraphPad Prism Software as fold change of treated cells over DMSO control cells.

In another test the target is GST-PPARG-LBD (Homo sapiens (Human), UniProt P37231). Briefly: Lanthascreen PPARG competitive binding assay (Invitrogen, TR-FRET). The note with it: Lanthascreen competitive binding; NA = not active; inc = incomplete curve; read-out: IC50 (nM) Lantha. The method, boiled down: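 TR-FRET competitive binding of GST-PPARG-LBD with 5 nM Tb-GST-antibody and 5 nM Fluormone Pan-PPAR Green tracer, in TR-FRET buffer C. Compound serially diluted from 10 μM, 2 h dark incubation, in triplicate. Readout is 520/490 nm emission ratio (340 nm excitation), expressed as fold change over 2% DMSO control.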
(In TR-FRET formats the signal depends on donor and acceptor labels being close together.)

GST-PPARG-LBD, sequence (P37231 238-503): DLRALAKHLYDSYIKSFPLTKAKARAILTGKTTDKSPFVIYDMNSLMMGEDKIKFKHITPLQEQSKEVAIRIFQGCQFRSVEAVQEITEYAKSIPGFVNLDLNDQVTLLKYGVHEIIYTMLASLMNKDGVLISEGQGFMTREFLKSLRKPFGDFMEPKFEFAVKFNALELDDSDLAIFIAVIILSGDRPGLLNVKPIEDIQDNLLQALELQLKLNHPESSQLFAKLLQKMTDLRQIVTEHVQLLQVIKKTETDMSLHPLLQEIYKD

The term EC50 denotes the concentration giving half of the maximal effect. A word on the IC50: it is the midpoint of a concentration-inhibition curve. With `Cc1c(C)n(Cc2ccc(-c3ccccc3C(=O)O)cc2)c2ccc(C(=O)NCc3cccc(C(F)(F)F)c3)cc12` [Example 100, 4′-((2,3-dimethyl-5-(3-(trifluoromethyl)benzylcarbamoyl)-1H-indol-1-yl)methyl)biphenyl-2-carboxylic acid], in test [1], the EC50 was 281 nM and the “PPRE transactivation (% in parentheses)” value is “(21%)”. Besides, the half-maximal inhibitory concentration (IC50) at GST-PPARG-LBD is 191 nM.

For `Cc1c(C)n(Cc2ccc(-c3ccccc3C(=O)O)cc2)c2ccc(C(=O)NCc3ccc(-c4ccccc4)cc3)cc12` [Example 102, 4′-((5-(biphenyl-4-ylmethylcarbamoyl)-2,3-dimethyl-1H-indol-1-yl)methyl)biphenyl-2-carboxylic acid], in test [1], the EC50 worked out at 1.2 nM and the “PPRE transactivation (% in parentheses)” value is on record as “(29%)”. The IC50 at GST-PPARG-LBD amounted to 247 nM.

With `Cc1c(C)n(Cc2ccc(-c3ccccc3C(=O)O)cc2)c2ccc(C(=O)NCc3ccccc3Cl)cc12` [Example 108, 4′-((5-(2-chlorobenzylcarbamoyl)-2,3-dimethyl-1H-indol-1-yl)methyl)biphenyl-2-carboxylic acid], in test [1], the EC50 was determined as 535 nM and the “PPRE transactivation (% in parentheses)” value is “(15%)”. For the same molecule, the IC50 at GST-PPARG-LBD stood at 6 nM.

As to `Cc1c(C)n(Cc2ccc(-c3ccccc3C(=O)O)cc2)c2ccc(C(=O)NCc3cccc(Cl)c3)cc12` [Example 109, 4′-((5-(3-chlorobenzylcarbamoyl)-2,3-dimethyl-1H-indol-1-yl)methyl)biphenyl-2-carboxylic acid], in test [1], the EC50 is 12 nM and the “PPRE transactivation (% in parentheses)” value is “(21%)”. Moreover, the IC50 on GST-PPARG-LBD came to 2 nM.

As to `CCC[C@H](NC(=O)c1ccc2c(c1)c(C)c(C)n2Cc1ccc(-c2ccccc2C(=O)O)cc1)c1ccccc1` [Example 114, (S)-4′-((2,3-dimethyl-5-(1-phenylbutylcarbamoyl)-1H-indol-1-yl)methyl)biphenyl-2-carboxylic acid], in test [1], the half-maximal effective concentration (EC50) is 8 nM and the “PPRE transactivation (% in parentheses)” value is listed as “(14%)”. For the same molecule, the IC50 on GST-PPARG-LBD was determined as 0.8 nM.

Turning to `Cc1c(C)n(Cc2ccc(-c3ccccc3C(=O)O)cc2)c2ccc(C(=O)NC(C)c3cccc4ccccc34)cc12` (centres unmarked) [Example 116, 4′-((2,3-dimethyl-5-(1-(naphthalen-1-yl)ethylcarbamoyl)-1H-indol-1-yl)methyl)biphenyl-2-carboxylic acid], in test [1], the EC50 was determined as 5 nM and the “PPRE transactivation (% in parentheses)” value is “(16%)”. Further, the IC50 on GST-PPARG-LBD was 2 nM.

As to `Cc1c(C)n(Cc2ccc(-c3ccccc3C(=O)O)cc2)c2ccc(C(=O)NC(C)CCc3ccccc3)cc12` (centres unmarked) [Example 117, 4′-((2,3-dimethyl-5-(4-phenylbutan-2-ylcarbamoyl)-1H-indol-1-yl)methyl)biphenyl-2-carboxylic acid], in test [1], the EC50 was determined as 3 nM and the “PPRE transactivation (% in parentheses)” value is “(17%)”. In addition, the half-maximal inhibitory concentration (IC50) at GST-PPARG-LBD was 3 nM.

`Cc1c(C)n(Cc2ccc(-c3ccccc3C(=O)O)cc2)c2ccc(C(=O)NCc3ccccc3Br)cc12` [Example 118, 4′-((5-((2-Bromobenzyl)carbamoyl)-2,3-dimethyl-1H-indol-1-yl)methyl)-[1,1′-biphenyl]-2-carboxylic acid]: in test [1], the EC50 was 86 nM and the “PPRE transactivation (% in parentheses)” value is on record as “(8%)”. Moreover, on GST-PPARG-LBD, the IC50 turned out to be 17 nM.

As to `C[C@H](NC(=O)c1ccc2c(ccn2Cc2ccc(-c3ccccc3C(=O)O)cc2)c1)c1ccc(Br)cc1` [Example 130, (S)-4′-((5-((1-(4-Bromophenyl)ethyl)carbamoyl)-1H-indol-1-yl)methyl)-[1,1′-biphenyl]-2-carboxylic acid], the “PPRE transactivation (% in parentheses)” value in test [1] is “(0%)”. Also, the IC50 on GST-PPARG-LBD was 163 nM.

Consider `CCC(NC(=O)c1ccc2c(ccn2Cc2ccc(-c3ccccc3C(=O)O)cc2)c1)c1ccccc1` (centres unmarked) [Example 131, 4′-((5-((1-Phenylpropyl)carbamoyl)-1H-indol-1-yl)methyl)-[1,1′-biphenyl]-2-carboxylic acid], for which, in test [1], the concentration for a half-maximal effect (EC50) is 6 nM and the “PPRE transactivation (% in parentheses)” value is “(20%)”. For the same molecule, on GST-PPARG-LBD, the half-maximal inhibitory concentration (IC50) was determined as 6 nM.

As for `Cc1cc2cc(C(=O)N[C@@H](C)c3ccc(Br)cc3)ccc2n1Cc1ccc(-c2ccccc2C(=O)O)cc1` [Example 135, (S)-4′-((5-((1-(4-Bromophenyl)ethyl)carbamoyl)-2-methyl-1H-indol-1-yl)methyl)-[1,1′-biphenyl]-2-carboxylic acid], in test [1], the “PPRE transactivation (% in parentheses)” value is listed as “(0%)”. Also, the IC50 at GST-PPARG-LBD is 80 nM.

For the molecule `Cc1c(C)n(Cc2ccc(-c3ccccc3C(=O)O)cc2)c2ccc(C(=O)N[C@@H]3COc4ccccc4C3)cc12` [Example 250, (S)-4′-((5-(chroman-3-ylcarbamoyl)-2,3-dimethyl-1H-indol-1-yl)methyl)-[1,1′-biphenyl]-2-carboxylic acid], the “PPRE transactivation (% in parentheses)” value in test [1] was “(0%)”. In addition, on GST-PPARG-LBD, the half-maximal inhibitory concentration (IC50) amounted to 88 nM.

Turning to `Cc1c(C)n(Cc2ccc(-c3ccccc3C(=O)O)cc2)c2ccc(C(=O)NCc3cccc(S(C)(=O)=O)c3)cc12` [compound 4, 4′-((2,3-Dimethyl-5-(3-(methylsulfonyl)benzylcarbamoyl)-1H-indol-1-yl)methyl)biphenyl-2-carboxylic acid], the “PPRE transactivation (% in parentheses)” value in test [1] is “(0%)”. Moreover, the IC50 at GST-PPARG-LBD is 230 nM.

On to `Cc1c(C)n(Cc2ccc(-c3ccccc3C(=O)O)cc2)c2ccc(C(=O)NCc3cccc(OC(F)(F)F)c3)cc12` [compound 5, 4′-((2,3-Dimethyl-5-(3-(trifluoromethoxy)benzylcarbamoyl)-1H-indol-1-yl)methyl)biphenyl-2-carboxylic acid], for which, in test [1], the “PPRE transactivation (% in parentheses)” value is given as “(0%)”. In addition, the IC50 at GST-PPARG-LBD was 157 nM.

For `Cc1c(C)n(Cc2ccc(-c3ccccc3C(=O)O)cc2)c2ccc(C(=O)NCc3ccc(I)cc3)cc12` [compound 7, 4′-((5-(4-Iodobenzylcarbamoyl)-2,3-dimethyl-1H-indol-1-yl)methyl)biphenyl-2-carboxylic acid], in test [1], the EC50 was determined as 19 nM and the “PPRE transactivation (% in parentheses)” value is “(23%)”. The IC50 at GST-PPARG-LBD worked out at 4 nM.

Take `Cc1c(C)n(Cc2ccc(-c3ccccc3C(=O)O)cc2)c2ccc(C(=O)NCc3ccc(C#N)cc3)cc12` [compound 8, 4′-((5-(4-Cyanobenzylcarbamoyl)-2,3-dimethyl-1H-indol-1-yl)methyl)biphenyl-2-carboxylic acid]: in test [1], the EC50 came out at 9000 nM and the “PPRE transactivation (% in parentheses)” value was “(12%)”. For the same molecule, on GST-PPARG-LBD, the IC50 amounted to 34 nM.

As for `Cc1c(C)n(Cc2ccc(-c3ccccc3C(=O)O)cc2)c2ccc(C(=O)NCc3ccc(C(C)C)cc3)cc12` [compound 9, 4′-((5-(4-Isopropylbenzylcarbamoyl)-2,3-dimethyl-1H-indol-1-yl)methyl)biphenyl-2-carboxylic acid], in test [1], the EC50 was found to be 7 nM and the “PPRE transactivation (% in parentheses)” value is recorded as “(18%)”. In addition, at GST-PPARG-LBD, the IC50 was 23 nM.

For `Cc1c(C)n(Cc2ccc(-c3ccccc3C(=O)O)cc2)c2ccc(C(=O)NCc3ccc(S(C)(=O)=O)cc3)cc12` [compound 10, 4′-((2,3-Dimethyl-5-(4-(methylsulfonyl)benzylcarbamoyl)-1H-indol-1-yl)methyl)biphenyl-2-carboxylic acid], in test [1], the “PPRE transactivation (% in parentheses)” value is listed as “(0%)”. At GST-PPARG-LBD, the IC50 stood at 553 nM.

For the molecule `Cc1c(C)n(Cc2ccc(-c3ccccc3C(=O)O)cc2)c2ccc(C(=O)NCc3ccc(N(C)C)cc3)cc12` [compound 11, 4′-((5-(4-(Dimethylamino)benzylcarbamoyl)-2,3-dimethyl-1H-indol-1-yl)methyl)biphenyl-2-carboxylic acid], in test [1], the EC50 is 154 nM and the “PPRE transactivation (% in parentheses)” value is “(29%)”. Further, the IC50 at GST-PPARG-LBD stood at 13 nM.

On to `Cc1c(C)n(Cc2ccc(-c3ccccc3C(=O)O)cc2)c2ccc(C(=O)NCc3ccc(Cl)cc3)cc12` [compound 14, 4′-((5-(4-Chlorobenzylcarbamoyl)-2,3-dimethyl-1H-indol-1-yl)methyl)biphenyl-2-carboxylic acid], for which, in test [1], the EC50 is 70 nM and the “PPRE transactivation (% in parentheses)” value is “(21%)”. For the same molecule, the IC50 on GST-PPARG-LBD came to 4 nM.

For `COC(=O)c1ccc(CNC(=O)c2ccc3c(c2)c(C)c(C)n3Cc2ccc(-c3ccccc3C(=O)O)cc2)cc1` [compound 16, 4′-((5-(4-(Methoxycarbonyl)benzylcarbamoyl)-2,3-dimethyl-1H-indol-1-yl)methyl)biphenyl-2-carboxylic acid], in test [1], the EC50 was 59 nM and the “PPRE transactivation (% in parentheses)” value is listed as “(23%)”. In addition, the IC50 at GST-PPARG-LBD amounted to 2 nM.

Take `Cc1c(C)n(Cc2ccc(-c3ccccc3C(=O)O)cc2)c2ccc(C(=O)NCc3ccc(S(N)(=O)=O)cc3)cc12` [compound 17, 4′-((2,3-Dimethyl-5-(4-sulfamoylbenzylcarbamoyl)-1H-indol-1-yl)methyl)biphenyl-2-carboxylic acid]: the “PPRE transactivation (% in parentheses)” value in test [1] is on record as “(0%)”. The IC50 on GST-PPARG-LBD was 300 nM.

The record behind these values is patent US8957093B2, “N-biphenylmethylindole modulators of PPARG” (The Scripps Research Institute, priority 2011, dated 2015).
